The source of these data is US20180271923A1, “COMPOSITION FOR PREVENTING OR TREATING MENOPAUSAL DISORDERS, CONTAINING TETRAGONIA TETRAGONOIDES (PALL.) KUNTZE EXTRACT” (Korea Institute of Oriental Medicine, priority 2015, published 2018).

Common to all, as to type: in vivo
Data set [1] has as its system ovariectomized rats. Put plainly: Evaluation on menopause inducement in ovariectomized rats (weight of uterus, serum 17β-estradiol by RIA kit). To be noted: n = 12, means ± SD, Table 1. Here is the method:
Rats were ovariectomized to induce menopause, and weight of uterus and serum levels of 17β-estradiol that is a kind of female hormones were measured to determine whether menopause was induced in the rats. Specifically, the rats were sacrificed, and then their uteri were removed and weighed. A serum concentration of 17β-estradiol was measured with an RIA kit (Linco Research Inc.).

For data set [2], the system named is ovariectomized rats. Put plainly: Serum triglyceride, glucose, insulin, cholesterol levels and HOMA-IR in overnight-fasted ovariectomized rats. Conditions: n = 12, means ± SD. Here is the method:
In order to confirm efficacies of the Tetragonia tetragonoides (Pall.) Kuntze extract prepared according to Preparation Example 1 for ameliorating menopausal obesity, rats were ovariectomized and, at the same time, obesity-induced. The rats were fed with the Tetragonia tetragonoides (Pall.) Kuntze extract, and effects of the extract on obesity-related parameters in blood were evaluated. The ovariectomized rats were fed with the Tetragonia tetragonoides (Pall.) Kuntze by the method according to Example 1-1. Then, at the end of the experiment, the rats were fasted overnight and masses of serum glucose, insulin, and triglyceride were measured. Specifically, the rats were fasted for 16 hours, and then blood was collected from tails. Fasting serum glucose levels were measured by a Beckman glucometer and serum insulin concentrations were measured by radioimmunoassay. Fasting blood glucose, food and water intake, and body weight were measured at 10 a.m. on every Tuesday. Based on the above results, a homeostasis model assessment of insulin resistance (HOMA-IR) concentration which is used as a marker of insulin resistance was calculated, and the following Equation 1 was used for such calculation. HOMA-IR=fasting insulin(μIU/ml)×fasting glucose(mM)/22.5 [Equation 1]

Data set [3] deals with ovariectomized rats. Put plainly: Body weight, visceral fat, uterus weight and calorie uptake at end of experiment in ovariectomized rats on high-fat diet. The protocol: In order to confirm efficacies of the Tetragonia tetragonoides (Pall.) Kuntze extract prepared according to Preparation Example 1 for ameliorating menopausal obesity, rats were ovariectomized and, at the same time, obesity-induced. The rats were fed with the Tetragonia tetragonoides (Pall.) Kuntze extract, and effects of the extract on visceral fat were evaluated. Specifically, the ovariectomized rats were fed with a high-fat diet (HFD) consisting of 40% energy (En %) of carbohydrate, 20 En % of protein, and 40 En % of fat, along with dextrin. The high-fat diet was made to contain 2% (w/w) of the Tetragonia tetragonoides (Pall.) Kuntze extract, and the rats were offered ad libitum access to the diet for 8 weeks. On the other hand, in the positive-control, the ovariectomized rats received 17β-estradiol which is a hormone preparation and were fed with a diet in which the high fat diet is mixed with dextrin for 8 weeks. Then, at the end of the experiment, a body weight, a mass of visceral fat including peri-uterine fat and fat in retroperitoneum, an energy consumption, and the like were measured.

The subject of data set [4] is ovariectomized rats. Put plainly: Energy consumption by indirect calorimetry in ovariectomized rats. Conditions: indirect calorimetry after 8 weeks, 6 hours fasting, n = 12, means ± SD. From the text:
Specifically, the ovariectomized rats were fed with a high-fat diet (HFD) consisting of 40% energy (En %) of carbohydrate, 20 En % of protein, and 40 En % of fat, along with dextrin. The high-fat diet was made to contain 2% (w/w) of the Tetragonia tetragonoides (Pall.) Kuntze extract, and the rats were offered ad libitum access to the diet for 8 weeks. On the other hand, in the positive-control, the ovariectomized rats received 17β-estradiol which is a hormone preparation and were fed with a diet in which the high fat diet is mixed with dextrin for 8 weeks. Then, at the end of the experiment, a body weight, a mass of visceral fat including peri-uterine fat and fat in retroperitoneum, an energy consumption, and the like were measured. The energy consumption was analyzed by indirect calorimetry. Specifically, after the Tetragonia tetragonoides (Pall.) Kuntze extract was fed for 8 weeks, and a fasting state of 6 hours was induced, the energy consumption was measured at the time of beginning of a dark period in light/dark cycle. In order to analyze calorimetric parameters, a metabolic chamber (airflow=800 ml/min) equipped with a computer-controlled O2 and CO2 measurement system (BIOPAC Systems, Inc., Goleta, Calif.) was utilized, and respiratory quotient (RQ) and resting energy expenditure (REE) were calculated using equations. An average oxygen uptake (VO2) and an average carbon dioxide emission (VCO2) were measured over 30 minutes. After the experiment, data were averaged at 1 minute intervals and the VO2 and VCO2 values were calibrated to a body size (kg^0.75). Oxidation of carbohydrate and fat was calculated as a non-protein oxygen uptake, that is, a relative oxidation rate and an oxygen amount consumed per gram (g) of oxidized substrate.

The mark [5] stands for this setting: serum, overnight-fasted ovariectomized rats.
The mark [6] stands for this setting: ovariectomized rats, high-fat diet, 8 weeks, n = 12, means ± SD.

Marks after values point to notes of the source that are not given here.

For the molecule `C[C@]12CC[C@@H]3c4ccc(O)cc4CC[C@H]3[C@@H]1CC[C@@H]2O` [Positive-control, 17β-estradiol], the Weight of uterus in data set [1] is given as 0.61 ± 0.22^a g. For the same molecule, in data set [2] (fasting insulin × fasting glucose / 22.5 (Equation 1)), the HOMA-IR is 6.8 ± 0.9^c. For the same molecule, the Glucose levels in data set [2] (serum, overnight-fasted (16 hours) ovariectomized rats, end of experiment) is 109 ± 13^b mg/dL. Besides, in data set [2] (setting [5]), the HDL cholesterol was 23.2 ± 1.5^a mg/dL, the Total cholesterol is given as 85.0 ± 7.6^c mg/dL and the Triglyceride levels is 65.7 ± 5.8^b mg/dL. In addition, the Insulin levels in data set [2] (serum, overnight-fasted ovariectomized rats, radioimmunoassay) is listed as 1.14 ± 0.19^b ng/mL. Moreover, the “weight of uterus (proliferation of uterus, side effect of hormone therapies)” value in data set [3] (in words) is on record as “increase”. In addition, the Body weight in data set [3] (ovariectomized rats, high-fat diet with 2% (w/w) extract for 8 weeks (positive-control: 17β-estradiol), end of experiment, n = 12, means ± SD) was 369 ± 26^b g. In addition, in data set [3] (setting [6]), the Body weight gain is listed as 70.0 ± 11.5^c g, the Fat in retroperitoneum is recorded as 5.7 ± 1.6^c g and the Peri-uterine fat is recorded as 7.2 ± 1.6^d g. Moreover, in data set [3] (ovariectomized rats, high-fat diet, 8 weeks, n = 12, means ± SD, Table 2), the Weight of uterus was 0.61 ± 0.22^a g. For the same molecule, in data set [3] (peri-uterine fat and fat in retroperitoneum, ovariectomized rats, high-fat diet, 8 weeks, n = 12, means ± SD), the Visceral fat is recorded as 12.9 ± 2.6^c g. Also, in data set [4] (beginning of dark period), the Daily energy consumption is listed as 117 ± 15^a kcal/kg^0.75/day. Further, in data set [4], the Carbohydrate oxidation was 5.6 ± 0.7^b mg/kg^0.75/min and the Fat oxidation is 6.9 ± 0.8^b mg/kg^0.75/min.
